Assay results as given in patent US6358701B1, “DNA molecules encoding Ctenocephalides felis glutamate gated chloride channels” (Merck & Co., Inc., priority 1997, dated 2002).
pEC50: −log10 of the molar value. Like-named read-outs stand apart in the source and are kept apart here.

Experiments:
[1] = test system: CfGluCl-1 (C. felis GluCl channel); assay: Two microelectrode voltage clamp of Xenopus oocytes expressing CfGluCl-1; type: cell-based, Ctenocephalides felis; settings: for ability to activate CfGluCl-1: agonists for other types of ligand-gated chloride channels
Procedure: The full-length cDNA encoding CfGluCl-1 in plasmid vector pBluescript (Stratagene, LaJolla, Calif.) is linearized and capped cRNA transcripts are synthesized using appropriate oligonucleotide primers and the mMESSAGE mMACHINE in vitro RNA transcription kit (Ambion). Xenopus laevis oocytes were prepared and injected using standard methods as described (Arena et al., 1991, Mol. Pharmacol. 40: 368-374; Arena et al, 1992, Mol. Brain Res. 15: 339-348). Adult female Xenopus laevis were anesthetized with 0.17% tricaine methanesulfonate and the ovaries were surgically removed and placed in a dish consisting of (mM): NaCl 82.5, KCl 2, MgCl2 1, CaCl2 1.8, HEPES 5 adjusted to pH 7.5 with NaOH (OR-2). Ovarian lobes were broken open, rinsed several times, and gently shaken in OR-2 containing 0.2% collagenase (Sigma, Type IA) for 2-5 hours. When approximately 50% of the follicular layers were removed, Stage V and VI oocytes were selected and placed in media consisting of (mM): NaCl 86, KCl 2, MgCl2 1, CaCl2 1.8, HEPES 5, Na pyruvate 2.5, theophylline 0.5, gentamicin 0.1 adjusted to pH 7.5 with NaOH (ND-96) for […] before injection. For most experiments, oocytes were injected with 10 ng of cRNA in 50 nl of RNase free water. Control oocytes were injected with 50 nl of water. Oocytes were incubated for 1-5 days in ND-96 supplemented with […] gentamycin, 2.5 mM Na pyruvate and 0.5 mM theophylline before recording. Incubations and collagenase digestion were carried out at […].
Voltage-clamp studies were conducted with the two microelectrode voltage clamp technique using a Dagan CA1 amplifier (Dagan Instruments, Minneapolis, Minn.). The current passing microelectrodes were filled with 0.7M KCl plus 1.7M K3-citrate and the voltage recording microelectrodes were filled with 1.0M KCl. The extracellular solution for most experiments was saline consisting of (mM): NaCl 96, BaCl2 3.5, MgCl2 0.5, CaCl2 0.1, HEPES 5, adjusted to pH 7.5 with NaOH. The extracellular chloride concentration was reduced in some experiments by equimolar replacement of NaCl with the sodium salt of the indicated anion. Experiments were conducted at 21-24° C. Data were acquired using the program Pulse and most analysis was performed with the companion program Pulsefit (Instrutech Instruments, Great Neck, N.Y.) or with Igor Pro (Wavemetrics, Lake Oswego, Oreg.). Data were filtered (fc, −3db) at 1 kHz, unless otherwise indicated.
FIG. 5A and FIG. 5B show the activation of CfGluCl-1 by glutamate. […] The duration of exposure to glutamate is indicated by the solid bar at top. FIG. 5B shoes the concentration-response curve for glutamate. Peak outward current is plotted vs. glutamate concentration. The solid curve is the best fit to the equation I/Imax={1+(EC50/[glutamate])^n}^−1. […] Agonists for other types of ligand-gated chloride channels were also tested for the ability to activate
Each curve represents the difference between the current measured with and without 10 μM glutamate. The voltage was ramped from −120 to +60 mV at 1 volt/second. Chloride concentration was reduced from 104 mM to 8.2 mM by equimolar substitution of NaCl by Na-methanesulfonate or Na-gluconate. Each current-voltage relationship was fit to a seventh order polynomial using non-linear least squares analysis and the reversal potential was taken as the x-intercept of this polynomial.
A single [IVM-PO4] was tested on each oocyte. The ordinate is the maximal current induced by IVM-PO4 normalized by the peak current induced by 100 μM glutamate, a maximally effective concentration. The error bars indicate ±S.E.M. The holding potential was 0 mV for both sets of measurements. The filled circles represent data for CfGluCl-1.
(1) I=Iivm,max/{1+(EC50/[IVM-PO4])^n}

DmGluCl1 = DmGluCl1 (Drosophila melanogaster, UniProt Q94900); settings: holding potential −80 mV; cited from earlier work
DmGluCl1, sequence (Q94900 23-456 S345N): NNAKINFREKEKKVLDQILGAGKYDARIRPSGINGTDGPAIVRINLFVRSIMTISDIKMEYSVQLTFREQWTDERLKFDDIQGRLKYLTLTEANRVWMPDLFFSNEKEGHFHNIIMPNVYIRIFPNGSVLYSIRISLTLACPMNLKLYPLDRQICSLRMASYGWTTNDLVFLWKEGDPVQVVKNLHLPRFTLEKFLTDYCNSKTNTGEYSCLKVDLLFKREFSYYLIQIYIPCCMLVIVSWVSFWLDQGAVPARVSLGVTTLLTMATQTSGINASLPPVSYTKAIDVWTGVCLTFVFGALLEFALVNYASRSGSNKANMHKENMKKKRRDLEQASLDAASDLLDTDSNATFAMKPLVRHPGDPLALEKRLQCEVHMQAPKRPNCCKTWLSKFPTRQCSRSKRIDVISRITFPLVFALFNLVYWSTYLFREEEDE

With `CC(=O)OCC[N+](C)(C)C` [acetylcholine] as the compound, how does the “ability to activate CfGluCl-1” value [1] read?
The value was “inactive”.

With ivermectin phosphate [IVM-PO4] as the compound, how does the increase in potency ([1]; 0 mV measurements vs. earlier −80 mV data) read?
The increase in potency was 10 fold.

What about the “agonist activity at the flea GluCl channel encoded by CfGluCl-1” value ([1]; FIGS. 7A and B) of the same compound?
Its value is “agonist”.

And the “Iivm,max (maximal current normalized by the peak current induced by 100 μM glutamate)” value ([1]; holding potential 0 mV)?
Its value is 0.718.

And the pEC50 ([1]; holding potential 0 mV, fit to equation (1), read-out: EC50 for activation of CfGluCl-1)?
The pEC50 was 8.53.

What about the pEC50 (DmGluCl1) of the same compound?
The pEC50 was 7.39.

What about the “Iivm,max on DmGluCl1” value (DmGluCl1) of the same compound?
The value was 0.35.

And the “n (exponent of equation (1)) on DmGluCl1” value (DmGluCl1)?
Its value is 1.2.

For `NCc1cc(=O)[nH]o1` [muscimol], which “ability to activate CfGluCl-1” value [1] is on record?
The value was “inactive”.

With `NCCCC(=O)O` [GABA] as the compound, how does the “ability to activate CfGluCl-1” value [1] read?
The value was “inactive”.

With `N[C@@H](CCC(=O)O)C(=O)O` [glutamate] as the compound, how does the pEC50 ([1]; experiment of FIG. 5B, fit to I/Imax={1+(EC50/[glutamate])^n}^−1, read-out: EC50 for activation of CfGluCl-1 (peak outward current vs. concentration)) read?
Its pEC50 is 5.03.

For `NCC(=O)O` [glycine], which “ability to activate CfGluCl-1” value [1] is on record?
Its value is “inactive”.

For `NCCc1c[nH]cn1` [histamine], which “ability to activate CfGluCl-1” value [1] is on record?
Its value is “inactive”.
